According to patent US11173151B2, “Substituted triazole derivatives and uses thereof” (BAYER AKTIENGESELLSCHAFT, priority 2017, dated 2021):

Assays:
[1] = target: T1, human V1a receptor (Homo sapiens, UniProt P37288); test: Cellular in vitro assay for determining vasopressin receptor activity, V1a receptor cell line (CHO, aequorin luminescence); assay type: cell-based; conditions: for IC50: CHO cell line transfected with human V1a receptor, [Arg]-vasopressin at EC50 concentration, read-out: IC50 hV1a; for ratio IC50 hV2/hV1a: selectivity ratio IC50 hV2 / IC50 hV1a
T1 construct: expressed in transfected cells; host or cells: CHO K1 (ATCC), also stably transfected with a modified aequorin
T1 sequence (P37288 whole entry): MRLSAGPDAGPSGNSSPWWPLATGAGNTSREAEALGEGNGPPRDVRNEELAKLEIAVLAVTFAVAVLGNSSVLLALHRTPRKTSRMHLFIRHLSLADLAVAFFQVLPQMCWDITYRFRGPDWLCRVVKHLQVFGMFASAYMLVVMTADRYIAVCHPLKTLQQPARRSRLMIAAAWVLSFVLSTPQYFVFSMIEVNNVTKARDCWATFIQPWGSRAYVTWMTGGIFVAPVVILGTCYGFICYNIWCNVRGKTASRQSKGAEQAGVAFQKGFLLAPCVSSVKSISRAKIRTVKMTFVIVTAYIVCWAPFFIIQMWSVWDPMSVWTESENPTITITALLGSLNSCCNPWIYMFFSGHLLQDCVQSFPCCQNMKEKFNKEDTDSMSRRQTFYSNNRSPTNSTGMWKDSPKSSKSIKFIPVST
Procedure, shortened: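 Luminescence from reconstituted aequorin, reporting intracellular calcium release, was measured immediately after adding [Arg]-vasopressin at EC50 concentration to CHO K1 cells pretreated 10 minutes with graded compound concentrations. Inhibition gave IC50 values.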

[2] = target: T2, human V2 receptor (Homo sapiens, UniProt P30518); test: Cellular in vitro assay for determining vasopressin receptor activity, V2 receptor cell line (CHO, CRE-luciferase); assay type: cell-based; conditions: CHO cell line transfected with human V2 receptor; [Arg8]-vasopressin at EC50 concentration, 3 hours; read-out: IC50 hV2
T2 construct: expressed in transfected cells; host or cells: CHO K1 (ATCC) expressing firefly luciferase under a CRE-responsive promoter
T2 sequence (P30518 whole entry): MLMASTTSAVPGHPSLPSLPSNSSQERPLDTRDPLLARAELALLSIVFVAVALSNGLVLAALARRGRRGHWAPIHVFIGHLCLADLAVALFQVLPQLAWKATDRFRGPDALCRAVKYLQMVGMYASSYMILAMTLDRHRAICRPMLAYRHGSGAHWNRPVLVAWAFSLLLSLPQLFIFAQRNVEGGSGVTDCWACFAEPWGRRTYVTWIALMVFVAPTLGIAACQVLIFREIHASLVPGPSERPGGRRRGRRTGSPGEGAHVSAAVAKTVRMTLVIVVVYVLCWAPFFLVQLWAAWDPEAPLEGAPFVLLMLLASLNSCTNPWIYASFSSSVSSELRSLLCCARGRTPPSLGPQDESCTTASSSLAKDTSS

Compound | IC50 [1] | ratio IC50 hV2/hV1a [1] | IC50 [2]
O=C(CC(F)(F)F)Nc1ccncc1-n1cnc(Cn2nc(-c3ccc(Cl)cc3)n(C[C@H](O)C(F)(F)F)c2=O)n1 [Example 27, N-{3-[3-({3-(4-Chlorophenyl)-5-oxo-4-[(2S)-3,3,3-trifluoro-2-hydroxypropyl]-4,5-dihydro-1H-1,2,4-triazol-1-yl}methyl)-1H-1,2,4-triazol-1-yl]pyridin-4-yl}-3,3,3-trifluoropropanamide] | 4.05 nM | 69.8 | 283 nM
CC(=O)Nc1ccncc1-n1cnc(Cn2nc(-c3ccc(Cl)cc3)n(C[C@H](O)C(F)(F)F)c2=O)n1 [Example 28, N-{3-[3-({3-(4-Chlorophenyl)-5-oxo-4-[(2S)-3,3,3-trifluoro-2-hydroxypropyl]-4,5-dihydro-1H-1,2,4-triazol-1-yl}methyl)-1H-1,2,4-triazol-1-yl]pyridin-4-yl}acetamide] | 11 nM | 35.9 | 395 nM
O=C(CC1CC1)Nc1ccncc1-n1cnc(Cn2nc(-c3ccc(Cl)cc3)n(C[C@H](O)C(F)(F)F)c2=O)n1 [Example 30, N-{3-[3-({3-(4-Chlorophenyl)-5-oxo-4-[(2S)-3,3,3-trifluoro-2-hydroxypropyl]-4,5-dihydro-1H-1,2,4-triazol-1-yl}methyl)-1H-1,2,4-triazol-1-yl]pyridin-4-yl}-2-cyclopropylacetamide] | 12.8 nM | 61.0 | 783 nM
O=C(Nc1ccncc1-n1cnc(Cn2nc(-c3ccc(Cl)cc3)n(C[C@H](O)C(F)(F)F)c2=O)n1)C1CC(F)(F)C1 [Example 31, N-{3-[3-({3-(4-Chlorophenyl)-5-oxo-4-[(2S)-3,3,3-trifluoro-2-hydroxypropyl]-4,5-dihydro-1H-1,2,4-triazol-1-yl}methyl)-1H-1,2,4-triazol-1-yl]pyridin-4-yl}-3,3-difluorocyclobutanecarboxamide] | 18.3 nM | 90.8 | 1670 nM
O=C(Nc1ccncc1-n1cnc(Cn2nc(-c3ccc(Cl)cc3)n(C[C@H](O)C(F)(F)F)c2=O)n1)C1(C(F)(F)F)CC1 [Example 32, N-{3-[3-({3-(4-Chlorophenyl)-5-oxo-4-[(2S)-3,3,3-trifluoro-2-hydroxypropyl]-4,5-dihydro-1H-1,2,4-triazol-1-yl}methyl)-1H-1,2,4-triazol-1-yl]pyridin-4-yl}-1-(trifluoromethyl)cyclopropanecarboxamide] | 5 nM | 150.7 | 753 nM
O=C(Nc1ccncc1-n1cnc(Cn2nc(-c3ccc(Cl)cc3)n(C[C@H](O)C(F)(F)F)c2=O)n1)[C@@H]1C[C@@H]1F [Example 34, (1S,2S)—N-{t3-[3-({3-(4-Chlorophenyl)-5-oxo-4-[(2S)-3,3,3-trifluoro-2-hydroxypropyl]-4,5-dihydro-1H-1,2,4-triazol-1-yl}methyl)-1H-1,2,4-triazol-1-yl]pyridin-4-yl}-2-fluorocyclopropanecarboxamide] | 13.5 nM | 92.1 | 1240 nM
O=C(Nc1cccnc1-n1cnc(Cn2nc(-c3ccc(Cl)cc3)n(C[C@H](O)C(F)(F)F)c2=O)n1)C(F)(F)F [Example 36, N-{2-[3-({3-(4-Chlorophenyl)-5-oxo-4-[(2S)-3,3,3-trifluoro-2-hydroxypropyl]-4,5-dihydro-1H-1,2,4-triazol-1-yl}methyl)-1H-1,2,4-triazol-1-yl]pyridin-3-yl}-2,2,2-trifluoroacetamide] | 67.5 nM | 3.4 | 232 nM
O=C(CC(F)(F)F)Nc1cccnc1-n1cnc(Cn2nc(-c3ccc(Cl)cc3)n(C[C@H](O)C(F)(F)F)c2=O)n1 [Example 37, N-{2-[3-({3-(4-Chlorophenyl)-5-oxo-4-[(2S)-3,3,3-trifluoro-2-hydroxypropyl]-4,5-dihydro-1H-1,2,4-triazol-1-yl}methyl)-1H-1,2,4-triazol-1-yl]pyridin-3-yl}-3,3,3-trifluoropropanamide] | 7.5 nM | 77.0 | 578 nM
CC(=O)Nc1cccnc1-n1cnc(Cn2nc(-c3ccc(Cl)cc3)n(C[C@H](O)C(F)(F)F)c2=O)n1 [Example 38, N-{2-[3-({3-(4-Chlorophenyl)-5-oxo-4-[(2S)-3,3,3-trifluoro-2-hydroxypropyl]-4,5-dihydro-1H-1,2,4-triazol-1-yl}methyl)-1H-1,2,4-triazol-1-yl]pyridin-3-yl}acetamide] | 4.2 nM | 52.4 | 220 nM
O=C(CF)Nc1cccnc1-n1cnc(Cn2nc(-c3ccc(Cl)cc3)n(C[C@H](O)C(F)(F)F)c2=O)n1 [Example 39, N-{2-[3-({3-(4-Chlorophenyl)-5-oxo-4-[(2S)-3,3,3-trifluoro-2-hydroxypropyl]-4,5-dihydro-1H-1,2,4-triazol-1-yl}methyl)-1H-1,2,4-triazol-1-yl]pyridin-3-yl}-2-fluoroacetamide] | 23 nM | 15.7 | 360 nM
COCC(=O)Nc1cccnc1-n1cnc(Cn2nc(-c3ccc(Cl)cc3)n(C[C@H](O)C(F)(F)F)c2=O)n1 [Example 40, N-{2-[3-({3-(4-Chlorophenyl)-5-oxo-4-[(2S)-3,3,3-trifluoro-2-hydroxypropyl]-4,5-dihydro-1H-1,2,4-triazol-1-yl}methyl)-1H-1,2,4-triazol-1-yl]pyridin-3-yl}-2-methoxyacetamide] | 25.5 nM | 13.7 | 350 nM

Second part, the molecule after the results:

IC50 [1] | ratio IC50 hV2/hV1a [1] | IC50 [2] | Compound
4.25 nM | 84.7 | 360 nM | O=C(Nc1cccnc1-n1cnc(Cn2nc(-c3ccc(Cl)cc3)n(C[C@H](O)C(F)(F)F)c2=O)n1)C1CC1 [Example 44, N-{2-[3-({3-(4-Chlorophenyl)-5-oxo-4-[(2S)-3,3,3-trifluoro-2-hydroxypropyl]-4,5-dihydro-1H-1,2,4-triazol-1-yl}methyl)-1H-1,2,4-triazol-1-yl]pyridin-3-yl}cyclopropanecarboxamide]
32 nM | 49.0 | 1570 nM | O=C(CC1CC1)Nc1cccnc1-n1cnc(Cn2nc(-c3ccc(Cl)cc3)n(C[C@H](O)C(F)(F)F)c2=O)n1 [Example 46, N-{2-[3-({3-(4-Chlorophenyl)-5-oxo-4-[(2S)-3,3,3-trifluoro-2-hydroxypropyl]-4,5-dihydro-1H-1,2,4-triazol-1-yl}methyl)-1H-1,2,4-triazol-1-yl]pyridin-3-yl}-2-cyclopropylacetamide]
7 nM | 40.5 | 283 nM | O=C(Nc1cccnc1-n1cnc(Cn2nc(-c3ccc(Cl)cc3)n(C[C@H](O)C(F)(F)F)c2=O)n1)C1(C(F)(F)F)CC1 [Example 47, N-{2-[3-({3-(4-Chlorophenyl)-5-oxo-4-[(2S)-3,3,3-trifluoro-2-hydroxypropyl]-4,5-dihydro-1H-1,2,4-triazol-1-yl}methyl)-1H-1,2,4-triazol-1-yl]pyridin-3-yl}-1-(trifluoromethyl)cyclopropanecarboxamide]
7.05 nM | 79.0 | 557 nM | O=C(Nc1cccnc1-n1cnc(Cn2nc(-c3ccc(Cl)cc3)n(C[C@H](O)C(F)(F)F)c2=O)n1)C1CC(F)(F)C1 [Example 48, N-{2-[3-({3-(4-Chlorophenyl)-5-oxo-4-[(2S)-3,3,3-trifluoro-2-hydroxypropyl]-4,5-dihydro-1H-1,2,4-triazol-1-yl}methyl)-1H-1,2,4-triazol-1-yl]pyridin-3-yl}-3,3-difluorocyclobutanecarboxamide]
4.8 nM | 230.2 | 1100 nM | CS(=O)(=O)CC(=O)Nc1cccnc1-n1cnc(Cn2nc(-c3ccc(Cl)cc3)n(C[C@H](O)C(F)(F)F)c2=O)n1 [Example 49, N-{2-[3-({3-(4-Chlorophenyl)-5-oxo-4-[(2S)-3,3,3-trifluoro-2-hydroxypropyl]-4,5-dihydro-1H-1,2,4-triazol-1-yl}methyl)-1H-1,2,4-triazol-1-yl]pyridin-3-yl}-2-(methylsulfonyl)acetamide]
31.5 nM | 71.4 | 2250 nM | CS(=O)(=O)NCC(=O)Nc1cccnc1-n1cnc(Cn2nc(-c3ccc(Cl)cc3)n(C[C@H](O)C(F)(F)F)c2=O)n1 [Example 53, N-{2-[3-({3-(4-Chlorophenyl)-5-oxo-4-[(2S)-3,3,3-trifluoro-2-hydroxypropyl]-4,5-dihydro-1H-1,2,4-triazol-1-yl}methyl)-1H-1,2,4-triazol-1-yl]pyridin-3-yl}-N^2-(methylsulfonyl)glycinamide]
4.5 nM | 90.4 | 407 nM | O=C(Nc1cccnc1-n1cnc(Cn2nc(-c3ccc(Cl)cc3)n(C[C@H](O)C(F)(F)F)c2=O)n1)C1CC1F (stereo partly drawn) [Example 54, N-{2-[3-({3-(4-Chlorophenyl)-5-oxo-4-[(2S)-3,3,3-trifluoro-2-hydroxypropyl]-4,5-dihydro-1H-1,2,4-triazol-1-yl}methyl)-1H-1,2,4-triazol-1-yl]pyridin-3-yl}-2-fluorocyclopropanecarboxamide]
13 nM | 38.7 | 503 nM | O=C(Nc1cccnc1-n1cnc(Cn2nc(-c3ccc(Cl)cc3)n(C[C@H](O)C(F)(F)F)c2=O)n1)C1(F)CC1 [Example 57, N-{2-[3-({3-(4-Chlorophenyl)-5-oxo-4-[(2S)-3,3,3-trifluoro-2-hydroxypropyl]-4,5-dihydro-1H-1,2,4-triazol-1-yl}methyl)-1H-1,2,4-triazol-1-yl]pyridin-3-yl}-1-fluorocyclopropanecarboxamide]
